{
  "source": "patent US12473350B2",
  "about": "“Recombinant humanized type III collagen microsphere with innovative spatial structure, and design, preparation process and usethereof” (Nanjing Tzone Biotechnology Co., Ltd., priority 2023, dated 2025)",
  "tested_on": "Human skin fibroblasts (HSF cells)",
  "assay": "MTT assay, effect on HSF cell growth",
  "type": "cell-based",
  "settings": "10% DMSO",
  "experimental": "Dimethyl sulfoxide (DMSO) can dissolve formazan in cells, and its light absorption value can be measured at a wavelength of […] using an enzyme-linked immunosorbent assay, which can indirectly reflect the number of live cells. Within a certain range of cell numbers, the amount of MTT crystals formed is proportional to the number of cells.\nLogarithmic phase cells are collected and the cell suspension concentration is adjusted. 100 μL of cell suspension is added per well and plated to adjust the density of the cells to be tested to 10,000 cells/well, and the edge wells are filled with sterile PBS. The cells are incubated under 5% CO2 at 37° C. until the cell monolayer spreads over all the bottom of the wells. Then, the drug in a concentration gradient is added; in principle, the drug can be added once the cells have adhered, with five parallel settings. The incubation is performed under 5% CO2 at 37° C. for 24 h or 48 h and the cells are observed under an inverted microscope. 20 μL of MTT solution (5 mg/mL, i.e., 0.5% MTT) is added to each well and the incubation is continued for 4 h. […] The light absorption value of each well is measured at […] using an Enzyme-Linked Immunosorbent Assay (ELISA) reader. […]",
  "data": [
    {"smiles": "C[S+](C)[O-]", "note": "[DMSO, Dimethyl Sulfoxide, reference compound]", "values": [
      {"measurement": "RGR (24 h)", "setting": "24 h", "value": 28.20, "unit": "%"},
      {"measurement": "RGR (48 h)", "setting": "48 h", "value": 17.15, "unit": "%"}
    ]}
  ]
}
